In one assay the target is PIM1 (Homo sapiens (Human), UniProt P11309). As to the kind of experiment: PIM1 activity, methodology of WO2013/005041. The assay is classed as biochemical. Particulars: compounds from the present invention.
Sequence of HASPIN (Q8TF76 whole entry): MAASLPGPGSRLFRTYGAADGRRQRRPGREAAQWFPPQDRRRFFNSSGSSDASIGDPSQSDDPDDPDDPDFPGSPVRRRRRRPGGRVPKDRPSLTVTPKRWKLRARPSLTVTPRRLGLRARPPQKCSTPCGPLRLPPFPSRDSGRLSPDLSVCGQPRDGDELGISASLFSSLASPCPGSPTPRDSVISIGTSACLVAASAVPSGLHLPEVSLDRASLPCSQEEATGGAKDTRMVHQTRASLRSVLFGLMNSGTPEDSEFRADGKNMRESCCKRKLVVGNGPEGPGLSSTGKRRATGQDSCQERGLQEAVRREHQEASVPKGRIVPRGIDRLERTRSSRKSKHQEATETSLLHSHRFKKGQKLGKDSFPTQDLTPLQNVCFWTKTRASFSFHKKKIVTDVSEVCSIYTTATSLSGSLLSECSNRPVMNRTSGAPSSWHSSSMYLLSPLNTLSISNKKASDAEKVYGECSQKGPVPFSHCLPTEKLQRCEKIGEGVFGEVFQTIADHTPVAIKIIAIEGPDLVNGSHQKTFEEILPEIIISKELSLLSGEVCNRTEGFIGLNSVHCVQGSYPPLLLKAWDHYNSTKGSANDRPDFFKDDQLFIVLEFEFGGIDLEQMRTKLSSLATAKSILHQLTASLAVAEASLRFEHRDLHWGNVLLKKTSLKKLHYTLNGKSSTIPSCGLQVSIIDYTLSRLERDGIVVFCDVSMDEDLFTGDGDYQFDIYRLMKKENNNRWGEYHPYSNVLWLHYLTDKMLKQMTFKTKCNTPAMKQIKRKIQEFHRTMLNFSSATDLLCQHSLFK
Sequence of PIM1 (P11309 whole entry, species assumed): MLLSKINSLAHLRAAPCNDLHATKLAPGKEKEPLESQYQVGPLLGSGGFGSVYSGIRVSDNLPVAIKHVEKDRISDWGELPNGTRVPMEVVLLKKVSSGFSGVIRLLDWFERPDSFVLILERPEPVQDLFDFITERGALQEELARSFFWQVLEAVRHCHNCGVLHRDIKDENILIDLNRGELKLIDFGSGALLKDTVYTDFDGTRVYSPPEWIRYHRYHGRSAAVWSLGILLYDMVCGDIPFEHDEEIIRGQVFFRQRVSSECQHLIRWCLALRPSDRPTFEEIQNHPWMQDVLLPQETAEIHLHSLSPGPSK
`Cc1nc2c3c(c(N4CCCC(CN)C4)nn2c1-c1ccnc(Cl)c1)CCCO3` (centres unmarked) [Compound 2, C-{1-[3-(2-Chloro-pyridin-4-yl)-2-methyl-7,8-dihydro-6H-9-oxa-1,3a,4-triaza-cyclopenta[a]naphthalen-5-yl]-piperidin-3-yl}-methylamine] displayed an IC50 of 3.4 µM.

Turning to `Cc1nc2c3c(c(N4CCC[C@@H](CN)C4)nn2c1-c1ccnc(Cl)c1)CCCO3` [Compound 3, C-{(S)-1-[3-(2-Chloro-pyridin-4-yl)-2-methyl-7,8-dihydro-6H-9-oxa-1,3a,4-triaza-cyclopenta[a]naphthalen-5-yl]-piperidin-3-yl}-methylamine], the IC50 is > 10 µM.

As to `Cc1nc2c3c(c(N4CCC[C@H](CN)C4)nn2c1-c1ccnc(Cl)c1)CCCO3` [Compound 4, C-{(R)-1-[3-(2-Chloro-pyridin-4-yl)-2-methyl-7,8-dihydro-6H-9-oxa-1,3a,4-triaza-cyclopenta[a]naphthalen-5-yl]-piperidin-3-yl}-methylamine], half-maximal inhibition (IC50) was put at 2.27 µM.

Regarding `Cc1nc2c3c(c(NCC4(F)CCNCC4)nn2c1-c1ccncc1)CCCO3` [Compound 6, (4-Fluoro-piperidin-4-ylmethyl)-(2-methyl-3-pyridin-4-yl-7,8-dihydro-6H-9-oxa-1,3a,4-triaza-cyclopenta[a]naphthalen-5-yl)-amine], the IC50 worked out at 3.3 µM. The IC50 values of the last two compounds are within 1.5-fold of each other.

On to `Cc1nc2c3c(c(NCC4CCNCC4)nn2c1-c1ccnc(Cl)c1)N(C)CCO3` [Compound 10, [3-(2-Chloro-pyridin-4-yl)-2,6-dimethyl-7,8-dihydro-6H-9-oxa-1,3a,4,6-tetraaza-cyclopenta[a]naphthalen-5-yl]-piperidin-4-ylmethyl-amine], for which inhibition was half-maximal at 1.09 µM (IC50).

Compound `Cc1nc2c3c(c(NCCCCO)nn2c1-c1ccnc(Cl)c1)N(C)CCO3` [Compound 12, 4-[3-(2-Chloro-pyridin-4-yl)-2,6-dimethyl-7,8-dihydro-6H-9-oxa-1,3a,4,6-tetraaza-cyclopenta[a]naphthalen-5-ylamino]-butan-1-ol] returned an IC50 of 1.81 µM. Compared with the last compound, the IC50 is about 1.7-fold higher.

`Cc1nc2c3c(c(N[C@H]4CC[C@@](C)(O)CC4)nn2c1-c1ccncc1)OCCN3C` [Compound 27, 4-(2,9-Dimethyl-3-pyridin-4-yl-8,9-dihydro-7H-6-oxa-1,3a,4,9-tetraaza-cyclopenta[a]naphthalen-5-ylamino)-1-methyl-cyclohexanol]: half-maximal inhibition (IC50) required 3.18 µM.

The target in another assay is intracellular HASPIN (phosphorylation of the HASPIN substrate H3T3) (Homo sapiens (Human), UniProt Q8TF76). Briefly: Cellular HASPIN inhibition assay (phosphorylation of H3T3), western blot in MV4:11 cells. Particulars: 8 hours of treatment, read-out: pH3T3 EC50. Format: cell-based. On the procedure: 10 min. The protein content of the lysates is determined by DC protein assay (Biorad, Ref. 5000116).
Sequence of intracellular HASPIN (phosphorylation of the HASPIN substrate H3T3) (Q8TF76 whole entry): as the sequence (Q8TF76 whole entry) above
For the compound `Cc1nc2c3c(c(NCC4(F)CCNCC4)nn2c1-c1ccnc(Cl)c1)C[C@@H](C)O3` (single isomer, unassigned) [Compound 34], the EC50 was < 0.05 µM.

On to `Cc1nc2c3c(c(NCC4(F)CCNCC4)nn2c1-c1ccnc(Cl)c1)C[C@H](C)O3` (single isomer, unassigned) [Compound 35], for which the EC50 was < 0.05 µM.

Another assay deals with MV4:11 (AML cell line). Briefly: Combination viability assay (CellTiter-Glo), Bliss combination index. Particulars: MV4:11 cell line, 72 h; agent 1 μM combined with compound 3 at 2 μM; CI<1 synergism.
Experimental: The cells were harvested just before reaching confluency, counted with a haemocytometer and diluted with media. Cells were then seeded in 96-well microtiter plates at a density of 5,000 cells/well. Cells were incubated for 24 hours before adding the compounds. Compounds were weighed out and diluted with DMSO to a final concentration of 10 mM. From here a “mother plate” was prepared at 200X the final concentration in the culture. The final concentration of DMSO in the tissue culture media should not exceed 1%. […] Each compound was assayed in duplicate. Cells were exposed to the compounds for 72 h and then processed for CellTiter-Glo® Luminescent Cell Viability Assay (Promega) read out according to manufacturer's Instruction and read on EndVision (Perkin Elmer). Percentage of viability inhibition was calculated using ActivityBase from IDBS. Potential synergy between drugs was evaluated by calculating the combination index (CI) based on the Bliss Independence model, whereby the CI was calculated with the following equation:
where Ea indicates the viability effect of drug A, Eb indicates the viability effect of drug B and Eab indicates the viability effect of the drug combination. CI<1 indicates synergism, CI=1 indicates additivity and CI>1 indicates antagonism.
For the compound `Cc1nc(NC(=O)N2CCC[C@H]2C(N)=O)sc1-c1ccnc(C(C)(C)C(F)(F)F)c1` [BYL-719, Alpelisib], the “CI (combination index)” value was determined as 0.59.

With `CC[C@H](Nc1ncnc2[nH]cnc12)c1nc2cccc(F)c2c(=O)n1-c1ccccc1` [CAL-101, IDELALISIB, Idelalisib], the “CI (combination index)” value was 0.67.

Take `CCN(CC)C(=S)SSC(=S)N(CC)CC` [Disulfiram]: the “CI (combination index)” value came out at 0.67.

For the compound `CN(NC(=O)CC(=O)NN(C)C(=S)c1ccccc1)C(=S)c1ccccc1` [ELESCLOMOL, Elesclomol], the “CI (combination index)” value stood at 0.78.

Regarding `C#Cc1cccc(Nc2ncnc3cc(OCCOC)c(OCCOC)cc23)c1` [ERLOTINIB, Erlotinib], the “CI (combination index)” value was determined as 0.62.

In the case of `C[C@]12CC[C@@H]3c4ccc(O)cc4C[C@@H](CCCCCCCCC[S+]([O-])CCCC(F)(F)C(F)(F)F)[C@H]3[C@@H]1CC[C@@H]2O` (some centres unmarked) [Fulvestrant], the “CI (combination index)” value is listed as 0.60.

With `CS(=O)(=O)N1CCN(Cc2cc3nc(-c4cccc5[nH]ncc45)nc(N4CCOCC4)c3s2)CC1` [GDC-0941, Pictilisib], the “CI (combination index)” value was determined as 0.85.

On to `NC1(c2ccc(-c3nc4ccn5c(=O)[nH]nc5c4cc3-c3ccccc3)cc2)CCC1` [MK-2206], for which the “CI (combination index)” value worked out at 0.64.

On to `Cc1ccc(Nc2nccc(N(C)c3ccc4c(C)n(C)nc4c3)n2)cc1S(N)(=O)=O` [Pazopanib], for which the “CI (combination index)” value stood at 0.57.

Turning to `O=C(CCCCCCNC(=O)c1cnc(N(c2ccccc2)c2ccccc2)nc1)NO` [Ricolinostat, ACY-1215, Ricolinostat], the “CI (combination index)” value turned out to be 0.69.

In the case of `CC(C)[C@H](O)C(=O)N[C@@H](C)C(=O)N[C@@H]1C(=O)N(C)CCc2ccccc21` [Semagacestat], the “CI (combination index)” value came to 0.53.

The next assay concerns the target HASPIN (Homo sapiens (Human), UniProt Q8TF76). As to the kind of experiment: HASPIN biochemical assay (ADP-Glo, HASPIN autophosphorylation). Particulars: ATP 150 μM, 60 min at 30° C. As to the method: HASPIN biochemical Assay: The biochemical assay to measure HASPIN activity relies on the ADP-Glo™ assay kit (Promega) that determines the amount of ADP as direct product of the kinase enzyme activity. Assay conditions were as indicated by the kit manufacturers with the following adaptations for the kinase activity step: Kinase assay buffer and assay volume (15 mM HEPES pH 7.5, 20 mM NaCl, 1 mM EGTA, 0.02% TWEEN 20, 10 mM MgCl2, 0.1 mg/ml BGG)/25 μL assay volume). Incubation time and temperature: 60 min at 30° C. HASPIN final concentration: 0.9 μg/mL. ATP final concentration: 150 μM. HASPIN autophosphorylation was measured. Assays were performed in 384-well plates. The final outcome of the coupled reactions provided by the kit is the release of luciferase and has been measured with a multilabel HTS counter Victor V/Envision. Values were normalized against the control activity included (100% HASPIN activity, without compound). Values were plotted against the inhibitor concentration and fit to a sigmoid dose-response curve using Activity base by IDBS software.
With `Cc1nc2c3c(c(NCC4(F)CCNCC4)nn2c1-c1ccnc(Cl)c1)CC(C)O3` (racemic) [Compound 33, [3-(2-Chloro-pyridin-4-yl)-2,7-dimethyl-6,7-dihydro-8-oxa-1,3a,4-triaza-as-indacen-5-yl]-(4-fluoro-piperidin-4-ylmethyl)-amine], the IC50 amounted to 0.00637 µM.

`Cc1nc2c3c(c(NCC4(F)CCNCC4)nn2c1-c1ccnc(Cl)c1)C[C@@H](C)O3` (single isomer, unassigned) [Compound 34] came in with a concentration for half-maximal inhibition (IC50) of 0.00587 µM. The IC50 values of the last two compounds are within 1.5-fold of each other.

`Cc1nc2c3c(c(NCC4(F)CCNCC4)nn2c1-c1ccnc(Cl)c1)C[C@H](C)O3` (single isomer, unassigned) [Compound 35]: the IC50 is 0.0207 µM.

For the origin of these results see patent US20240199630A1, “IMIDAZO[1,2-B]PYRIDAZINE BASED TRICYCLIC COMPOUNDS AS INHIBITORS OF HASPIN AND THERAPEUTIC USES THEREOF” (FUNDACIÓN DEL SECTOR PÚBLICO ESTATAL CENTRO NACIONAL DE …, priority 2021, published 2024).
